# Measured values: paper PMC5218480 (PLoS ONE, 2017)
# System: MV-4-11 cells
# Assay: Gene expression microarray analysis (Affymetrix PrimeView) and GSEA
# Format: cell-based, human
# Parameters: RFU PODN (11730768_x_at) / Fold change /veh PODN (11730768_x_at) / RFU LINC00158 (11744669_a_at) / Fold change /veh LINC00158 (11744669_a_at) / RFU DUSP10 (11751237_a_at) / Fold change /veh DUSP10 (11751237_a_at) / RFU ID3 (11757404_x_at) / Fold change /veh ID3 (11757404_x_at) / RFU PLEKHG5 (11737974_s_at) / Fold change /veh PLEKHG5 (11737974_s_at) / RFU LRRC4B (11730491_at) / Fold change /veh LRRC4B (11730491_at) / RFU GIMAP4 (11747438_a_at) / Fold change /veh GIMAP4 (11747438_a_at) / RFU KRT8 (11758183_x_at) / Fold change /veh KRT8 (11758183_x_at) / RFU CNN1 (11734310_a_at) / Fold change /veh CNN1 (11734310_a_at) / RFU VPS37D (11726825_at) / Fold change /veh VPS37D (11726825_at) / RFU C10orf10 (11716522_x_at) / Fold change /veh C10orf10 (11716522_x_at) / RFU KIR2DL2 /// KIR2DL4 /// KIR2DL5A /// KIR2DL5B /// KIR2DS1 /// KIR2DS2 /// KIR2DS3 /// KIR2DS4 /// KIR3DL3 /// KIR3DL3 /// KIR3DS1 (11738374_at) / Fold change /veh KIR2DL2 /// KIR2DL4 /// KIR2DL5A /// KIR2DL5B /// KIR2DS1 /// KIR2DS2 /// KIR2DS3 /// KIR2DS4 /// KIR3DL3 /// KIR3DL3 /// KIR3DS1 (11738374_at) / RFU C1QL1 (11718748_at) / Fold change /veh C1QL1 (11718748_at) / RFU TMPRSS4 (11747572_a_at) / Fold change /veh TMPRSS4 (11747572_a_at) / RFU HAMP (11756126_x_at) / Fold change /veh HAMP (11756126_x_at) / RFU RNFT2 (11725882_a_at) / Fold change /veh RNFT2 (11725882_a_at) / RFU NR4A2 (11747474_a_at) / Fold change /veh NR4A2 (11747474_a_at) / RFU ABCC12 (11746883_a_at) / Fold change /veh ABCC12 (11746883_a_at) / RFU TMEM136 (11760407_x_at) / Fold change /veh TMEM136 (11760407_x_at) / RFU CLDN22 /// WWC2 (11732394_at) / Fold change /veh CLDN22 /// WWC2 (11732394_at) / RFU HLA-DPB1 (11760878_x_at) / Fold change /veh HLA-DPB1 (11760878_x_at) / RFU SPINT1 (11716480_a_at) / Fold change /veh SPINT1 (11716480_a_at) / RFU GAP43 (11754022_s_at) / Fold change /veh GAP43 (11754022_s_at) / RFU A4GNT (11735810_at) / Fold change /veh A4GNT (11735810_at) / RFU PRB3 (11715151_x_at) / Fold change /veh PRB3 (11715151_x_at) / RFU TUBB4B (11761932_at) / Fold change /veh TUBB4B (11761932_at) / RFU CAPN14 (11732068_a_at) / Fold change /veh CAPN14 (11732068_a_at) / RFU TMCC2 (11721928_a_at) / Fold change /veh TMCC2 (11721928_a_at) / RFU IRGQ (11745062_a_at) / Fold change /veh IRGQ (11745062_a_at) / RFU FAM174B (11720279_a_at) / Fold change /veh FAM174B (11720279_a_at) / RFU TMPRSS4 (11748680_a_at) / Fold change /veh TMPRSS4 (11748680_a_at) / RFU FAM212B (11763350_a_at) / Fold change /veh FAM212B (11763350_a_at) / RFU PLEKHG5 (11743358_a_at) / Fold change /veh PLEKHG5 (11743358_a_at) / RFU ZSCAN30 (11745921_a_at) / Fold change /veh ZSCAN30 (11745921_a_at) / RFU CMKLR1 (11741424_a_at) / Fold change /veh CMKLR1 (11741424_a_at) / RFU LOC101060620 /// MAPK8IP1 (11723275_at) / Fold change /veh LOC101060620 /// MAPK8IP1 (11723275_at) / RFU SPTSSB (11747773_x_at) / Fold change /veh SPTSSB (11747773_x_at) / RFU PRSS12 (11739890_at) / Fold change /veh PRSS12 (11739890_at) / RFU BIN1 (11741810_x_at) / Fold change /veh BIN1 (11741810_x_at) / RFU WNT11 (11732464_a_at) / Fold change /veh WNT11 (11732464_a_at) / RFU C10orf10 (11716521_a_at) / Fold change /veh C10orf10 (11716521_a_at) / RFU C5orf56 (11738089_at) / Fold change /veh C5orf56 (11738089_at) / RFU CYB561 (11721691_x_at) / Fold change /veh CYB561 (11721691_x_at) / RFU ANKRD19P (11752326_a_at) / Fold change /veh ANKRD19P (11752326_a_at) / RFU OR2T12 /// OR2T33 /// OR2T8 (11738714_s_at) / Fold change /veh OR2T12 /// OR2T33 /// OR2T8 (11738714_s_at) / RFU VCAN (11748164_a_at) / Fold change /veh VCAN (11748164_a_at) / RFU JSRP1 (11732532_at) / Fold change /veh JSRP1 (11732532_at) / RFU KRTAP10-11 (11738290_x_at) / Fold change /veh KRTAP10-11 (11738290_x_at) / RFU MYO3A (11730013_a_at) / Fold change /veh MYO3A (11730013_a_at) / RFU EBF3 (11725865_a_at) / Fold change /veh EBF3 (11725865_a_at) / RFU CAMK2N1 (11719241_x_at) / Fold change /veh CAMK2N1 (11719241_x_at) / RFU C5orf56 (11738088_a_at) / Fold change /veh C5orf56 (11738088_a_at) / RFU OLFML3 (11715873_a_at) / Fold change /veh OLFML3 (11715873_a_at) / RFU LOC100653217 /// NTM (11731650_a_at) / Fold change /veh LOC100653217 /// NTM (11731650_a_at) / RFU MAPK11 (11762145_a_at) / Fold change /veh MAPK11 (11762145_a_at) / RFU FIZ1 (11724087_x_at) / Fold change /veh FIZ1 (11724087_x_at) / RFU OASL (11726364_x_at) / Fold change /veh OASL (11726364_x_at) / RFU SOX15 (11748057_x_at) / Fold change /veh SOX15 (11748057_x_at) / RFU CD79A (11719716_a_at) / Fold change /veh CD79A (11719716_a_at) / RFU HIST1H1D (11736915_at) / Fold change /veh HIST1H1D (11736915_at) / RFU CASKIN2 (11723855_a_at) / Fold change /veh CASKIN2 (11723855_a_at) / RFU LOC730098 (11760151_x_at) / Fold change /veh LOC730098 (11760151_x_at) / RFU OR4N2 (11742367_at) / Fold change /veh OR4N2 (11742367_at) / RFU PRRT2 (11749266_a_at) / Fold change /veh PRRT2 (11749266_a_at) / RFU SNX32 (11753110_a_at) / Fold change /veh SNX32 (11753110_a_at) / RFU CDHR5 (11726645_a_at) / Fold change /veh CDHR5 (11726645_a_at) / RFU RCAN1 (11760418_a_at) / Fold change /veh RCAN1 (11760418_a_at) / RFU FAM167A (11723789_a_at) / Fold change /veh FAM167A (11723789_a_at) / RFU FAM26E (11764081_at) / Fold change /veh FAM26E (11764081_at) / RFU ISYNA1 (11749810_s_at) / Fold change /veh ISYNA1 (11749810_s_at) / RFU ACY1 (11761880_at) / Fold change /veh ACY1 (11761880_at) / RFU 11764098_at / Fold change /veh 11764098_at / RFU SAMD14 (11745864_x_at) / Fold change /veh SAMD14 (11745864_x_at) / RFU NPB (11741838_a_at) / Fold change /veh NPB (11741838_a_at) / RFU TMPRSS6 (11731388_a_at) / Fold change /veh TMPRSS6 (11731388_a_at) / RFU KRTAP10-2 (11738614_at) / Fold change /veh KRTAP10-2 (11738614_at) / RFU ARHGAP8 /// PRR5-ARHGAP8 (11727945_x_at) / Fold change /veh ARHGAP8 /// PRR5-ARHGAP8 (11727945_x_at) / RFU KRTAP5-7 /// NADSYN1 (11734609_at) / Fold change /veh KRTAP5-7 /// NADSYN1 (11734609_at) / RFU RASL12 (11751679_a_at) / Fold change /veh RASL12 (11751679_a_at) / RFU CDKN2B (11736163_a_at) / Fold change /veh CDKN2B (11736163_a_at) / RFU PRF1 (11729649_at) / Fold change /veh PRF1 (11729649_at) / RFU, ZNF638 /// ZNF638-IT1 / Fold change vs veh, ZNF638 /// ZNF638-IT1 / RFU, PANK3 / Fold change vs veh, PANK3 / RFU, SH3YL1 / Fold change vs veh, SH3YL1 / RFU, ZEB2 / Fold change vs veh, ZEB2 / RFU, NRIP1 / Fold change vs veh, NRIP1 / RFU, PTTG1IP / Fold change vs veh, PTTG1IP / RFU, CAPN2 / Fold change vs veh, CAPN2 / RFU, MED14 / Fold change vs veh, MED14 / RFU, SNORA58 / Fold change vs veh, SNORA58 / RFU, C1orf63 / Fold change vs veh, C1orf63 / RFU, LRRFIP1 / Fold change vs veh, LRRFIP1 / RFU, NDUFAF7 / Fold change vs veh, NDUFAF7 / RFU, SLC12A2 / Fold change vs veh, SLC12A2 / RFU, IBTK / Fold change vs veh, IBTK / RFU, ESF1 / Fold change vs veh, ESF1 / Fold change vs veh, TMEM50B / RFU, TAOK1 / Fold change vs veh, TAOK1 / RFU, ACBD3 / Fold change vs veh, ACBD3 / RFU, TMA16 / Fold change vs veh, TMA16 / RFU, RWDD3 / Fold change vs veh, RWDD3 / RFU, BCAT1 / Fold change vs veh, BCAT1 / RFU, EDEM3 / Fold change vs veh, EDEM3 / RFU, TMEM33 / Fold change vs veh, TMEM33 / RFU, WDR75 / Fold change vs veh, WDR75 / RFU, AHCTF1 / Fold change vs veh, AHCTF1 / RFU, TFRC / Fold change vs veh, TFRC / RFU, ZDHHC17 / Fold change vs veh, ZDHHC17 / RFU, NOM1 / Fold change vs veh, NOM1 / RFU, ARL8B / Fold change vs veh, ARL8B / RFU, ZBTB11 / Fold change vs veh, ZBTB11 / RFU, TAMM41 / Fold change vs veh, TAMM41 / RFU, KIAA1704 /// LOC100996395 / Fold change vs veh, KIAA1704 /// LOC100996395 / RFU, ING1 / Fold change vs veh, ING1 / RFU, TRMT61B / Fold change vs veh, TRMT61B / RFU, FUBP3 / Fold change vs veh, FUBP3 / RFU, TP53 / Fold change vs veh, TP53 / RFU, TNKS2 / Fold change vs veh, TNKS2 / RFU, ZFP14 / Fold change vs veh, ZFP14 / RFU, ACTR2 / Fold change vs veh, ACTR2 / RFU, PPP3R1 / Fold change vs veh, PPP3R1 / RFU, PIK3R1 / Fold change vs veh, PIK3R1 / RFU, HNRNPA1 / Fold change vs veh, HNRNPA1 / RFU, RNF170 / Fold change vs veh, RNF170 / RFU, ZNF28 / Fold change vs veh, ZNF28 / RFU, RNGTT / Fold change vs veh, RNGTT / RFU, OGT / Fold change vs veh, OGT / RFU, BRD1 / Fold change vs veh, BRD1 / RFU, MARS / Fold change vs veh, MARS / RFU, ZNF655 / Fold change vs veh, ZNF655 / RFU, FAHD1 / Fold change vs veh, FAHD1 / RFU, BDP1 / Fold change vs veh, BDP1 / RFU, LRRCC1 / Fold change vs veh, LRRCC1 / RFU, ARID1A / Fold change vs veh, ARID1A / RFU, ZNF146 / Fold change vs veh, ZNF146 / RFU, ZNF330 / Fold change vs veh, ZNF330 / RFU, GPN3 / Fold change vs veh, GPN3 / RFU, C9orf123 / Fold change vs veh, C9orf123 / RFU, N4BP2L2 / Fold change vs veh, N4BP2L2 / RFU, ARFIP1 / Fold change vs veh, ARFIP1 / RFU, FAM179B / Fold change vs veh, FAM179B / RFU, BCL10 / Fold change vs veh, BCL10 / RFU, UHRF1BP1L / Fold change vs veh, UHRF1BP1L / RFU, BET1 / Fold change vs veh, BET1 / RFU, CNOT2 / Fold change vs veh, CNOT2 / RFU, ZNF268 / Fold change vs veh, ZNF268 / Fold change vs veh, ZNF507 / RFU, DGCR2 / Fold change vs veh, DGCR2 / RFU, WDSUB1 / Fold change vs veh, WDSUB1 / Fold change vs veh, HSP90B1 /// MIR3652 / RFU, ADSS / Fold change vs veh, ADSS / RFU, GK / Fold change vs veh, GK / RFU, ZNF148 / Fold change vs veh, ZNF148 / RFU, TAF9 / Fold change vs veh, TAF9 / RFU, SLC1A5 / Fold change vs veh, SLC1A5 / RFU, SLMO2 / Fold change vs veh, SLMO2 / RFU, ABCC4 / Fold change vs veh, ABCC4 / RFU, LOC101060439 /// RAP1B / Fold change vs veh, LOC101060439 /// RAP1B / RFU, RFX7 / Fold change vs veh, RFX7 / RFU, GTPBP10 / Fold change vs veh, GTPBP10 / RFU, CNEP1R1 / Fold change vs veh, CNEP1R1 / RFU, BIVM-ERCC5 /// ERCC5 / Fold change vs veh, BIVM-ERCC5 /// ERCC5 / RFU, ILF3 / Fold change vs veh, ILF3 / RFU 11762660_at / Fold change /veh 11762660_at / RFU VCAN (11757783_s_at) / Fold change /veh VCAN (11757783_s_at) / RFU DDX43 (11728927_at) / Fold change /veh DDX43 (11728927_at) / RFU KRT8 (11758188_x_at) / Fold change /veh KRT8 (11758188_x_at) / RFU NKD1 (11759106_at) / Fold change /veh NKD1 (11759106_at) / RFU SRD5A1 (11742802_a_at) / Fold change /veh SRD5A1 (11742802_a_at) / RFU TPSAB1 /// TPSB2 (11721975_s_at) / Fold change /veh TPSAB1 /// TPSB2 (11721975_s_at) / RFU GSTM3 (11746129_a_at) / Fold change /veh GSTM3 (11746129_a_at) / RFU IL23R (11737362_x_at) / Fold change /veh IL23R (11737362_x_at) / RFU TMEM51 (11727254_a_at) / Fold change /veh TMEM51 (11727254_a_at) / RFU PIWIL2 (11732686_x_at) / Fold change /veh PIWIL2 (11732686_x_at) / RFU ORM1 (11744905_x_at) / Fold change /veh ORM1 (11744905_x_at) / RFU CCDC152 (11743942_at) / Fold change /veh CCDC152 (11743942_at) / RFU ECM1 (11717891_a_at) / Fold change /veh ECM1 (11717891_a_at) / RFU IL23R (11748794_a_at) / Fold change /veh IL23R (11748794_a_at) / RFU TNFAIP8L3 (11732012_x_at) / Fold change /veh TNFAIP8L3 (11732012_x_at) / RFU MBOAT4 (11741988_at) / Fold change /veh MBOAT4 (11741988_at) / RFU 11764193_at / Fold change /veh 11764193_at / RFU TMEM53 (11763286_at) / Fold change /veh TMEM53 (11763286_at) / RFU MAGEB2 (11727129_at) / Fold change /veh MAGEB2 (11727129_at) / RFU TMEM200A (11744735_a_at) / Fold change /veh TMEM200A (11744735_a_at) / RFU CCDC152 (11751479_a_at) / Fold change /veh CCDC152 (11751479_a_at) / RFU FAM211A (11726209_a_at) / Fold change /veh FAM211A (11726209_a_at) / RFU RGS16 (11746705_a_at) / Fold change /veh RGS16 (11746705_a_at) / RFU VCAN (11755009_s_at) / Fold change /veh VCAN (11755009_s_at) / RFU RHOB (11743442_s_at) / Fold change /veh RHOB (11743442_s_at) / RFU RGS16 (11720943_a_at) / Fold change /veh RGS16 (11720943_a_at) / RFU RGS16 (11720944_at) / Fold change /veh RGS16 (11720944_at) / RFU, VPS4B / Fold change vs veh, VPS4B / RFU, CREB1 / Fold change vs veh, CREB1 / RFU, DNAJC13 / Fold change vs veh, DNAJC13 / RFU, GNAQ / Fold change vs veh, GNAQ / RFU, CDK5R1 / Fold change vs veh, CDK5R1 / RFU, ZRANB3 / Fold change vs veh, ZRANB3 / RFU, CUL4A / Fold change vs veh, CUL4A / RFU, CCNY / Fold change vs veh, CCNY / RFU, UFL1 / Fold change vs veh, UFL1 / RFU, COG3 / Fold change vs veh, COG3 / RFU, DIAPH2 / Fold change vs veh, DIAPH2 / RFU, SKA2 / Fold change vs veh, SKA2 / RFU, AFF3 / Fold change vs veh, AFF3 / RFU, LMF1 / Fold change vs veh, LMF1 / RFU, IPO11 / Fold change vs veh, IPO11 / RFU, DFFB / Fold change vs veh, DFFB / RFU, FOXP1 / Fold change vs veh, FOXP1 / RFU, CARD8 / Fold change vs veh, CARD8 / RFU, STRN3 / Fold change vs veh, STRN3 / RFU, ADK / Fold change vs veh, ADK / RFU, RASSF2 / Fold change vs veh, RASSF2 / RFU, WIPF1 / Fold change vs veh, WIPF1 / RFU, LARP1B / Fold change vs veh, LARP1B / RFU, RASA1 / Fold change vs veh, RASA1 / RFU, RB1 / Fold change vs veh, RB1 / RFU, PPFIA1 / Fold change vs veh, PPFIA1 / RFU, MAT2A / Fold change vs veh, MAT2A / RFU, CCT5 / Fold change vs veh, CCT5 / RFU, WDR92 / Fold change vs veh, WDR92 / RFU, CUX1 / Fold change vs veh, CUX1 / RFU, TTC7A / Fold change vs veh, TTC7A / RFU, TMEM135 / Fold change vs veh, TMEM135 / RFU, DEPTOR / Fold change vs veh, DEPTOR / RFU, CPM / Fold change vs veh, CPM / RFU, DNAJB6 / Fold change vs veh, DNAJB6 / RFU, CACNA2D3 / Fold change vs veh, CACNA2D3 / RFU, DTX4 / Fold change vs veh, DTX4 / RFU, TFCP2 / Fold change vs veh, TFCP2 / RFU, GMCL1 /// GMCL1P1 / Fold change vs veh, GMCL1 /// GMCL1P1 / RFU, AEBP2 / Fold change vs veh, AEBP2 / RFU, SNHG1 /// SNORD22 /// SNORD25 /// SNORD26 /// SNORD27 /// SNORD28 /// SNORD29 /// SNORD31 / Fold change vs veh, SNHG1 /// SNORD22 /// SNORD25 /// SNORD26 /// SNORD27 /// SNORD28 /// SNORD29 /// SNORD31 / Fold change (Aza/veh), C12orf56 (ProbeSet 11735607_a_at) / Fold change (ACY-1035/veh), C12orf56 (ProbeSet 11735607_a_at) / Fold change (Aza/veh), FGFR1OP (ProbeSet 11751329_s_at) / Fold change (ACY-1035/veh), FGFR1OP (ProbeSet 11751329_s_at) / Fold change (Aza/veh), VPS36 (ProbeSet 11739960_a_at) / Fold change (ACY-1035/veh), VPS36 (ProbeSet 11739960_a_at) / RFU SYPL1 (11715823_x_at) / Fold change /veh SYPL1 (11715823_x_at) / RFU IGFBP7 (11715501_s_at) / Fold change /veh IGFBP7 (11715501_s_at) / RFU REEP3 (11722064_at) / Fold change /veh REEP3 (11722064_at) / RFU IGLL1 (11728026_x_at) / Fold change /veh IGLL1 (11728026_x_at): dose or concentration left out as unconfirmed
# Settings: ProbeSet 11725141_a_at; LIST B
smiles,measurement,value
Nc1ncn([C@@H]2O[C@H](CO)[C@@H](O)[C@H]2O)c(=O)n1 [azacitidine],"Fold change vs veh, FUBP3",0.84
